From patent US20210121527A1, “METHODS OF TREATING MINIMAL RESIDUAL CANCER” (ICAHN SCHOOL OF MEDICINE AT MOUNT SINAI, priority 2018, published 2021)

Columns and labels:
[1] = tested on: HER2^+ metastases and DCCs; assay: Metastasis, CTC and DCC quantification in MMTV-HER2 mice; format: in vivo, mouse; details: 50 mpk i.p. daily, two weeks
Description: (§1) Mice, tumor growth, and tissue processing: The FVB/N-Tg (MMTVneu) mouse strain was obtained from Jackson Laboratories (Sacramento, Calif.). […] Before being used in any experiment, females underwent one round of pregnancy and at least two weeks of no lactation after weaning. Females between 24-32 weeks of age were injected intraperitoneally with vehicle (90% corn oil, 10% ethanol) or LY4 (50 mpk) daily, for two weeks. For the combination treatment, females 24-32 weeks of age were treated daily by oral gavage with Abemaciclib (50 mpk) for 4 weeks before starting the treatment described earlier with LY4. Tumor volumes were measured using the formula (Dxd^2)/2, where D is the longest and d is the shortest diameter. For CTC count, animals were anesthetized and whole blood was extracted by cardiac puncture. Mammary glands, lungs, and tumors were collected and fixed in 10% buffered formalin overnight before paraffin embedding. The bone marrow from the two lower limbs was flushed with a 26 G needle and further processed by Ficoll density gradient centrifugation. For CTC as well as for DTC detection in bone marrow, tissues were depleted of mature hematopoietic cells by anti-mouse antibody-labeled magnetic bead separation (Miltenyi Biotec, San Diego, Calif.) before fixation in formalin for 20 minutes at 4° C.
(§2) IHC and IF: IHC and IF from paraffin-embedded sections was performed as previously described (Avivar-Valderas et al., “Regulation of Autophagy during ECM Detachment is Linked to a Selective Inhibition of mTORC1 by PERK,” Oncogene 32(41):4932-40 (2013), which is hereby incorporated by reference in its entirety). Briefly, slides were dewaxed and serially rehydrated. Heat-induced antigen retrieval was performed in either citrate buffer (10 mM, pH 6), EDTA buffer (1 mM, pH 8), or Tris/EDTA (pH9). Slides were further permeabilized in 0.1% Triton™-X100, blocked and incubated with primary antibody overnight at 4° C. at 1:50-1:200 dilution. For IHC, an additional step of endogenous peroxidase and avidin/biotin quenching was performed before primary antibody incubation. […] Next, slides were incubated in secondary antibodies (Life Technologies, Norwalk, Conn.) and mounted. For IHC, sections were processed using VectaStain ABC Elite kit (Vector Laboratories, Bulingame, Calif.) and DAB Substrate kit for peroxidase labelling (Vector Laboratories) and mounted in VectaMount medium (Vector laboratories). For IF, sections were mounted in ProLong Gold Antifade aqueous medium (Thermo Fisher, Waltham, Mass.).
In the case of immunocytofluorescence, cytospins of fixed cells (100,000-200,000 cells/cytospin were prepared by cyto-centrifugation at 500 rpm for 3 minutes on poly-prep slides, and the staining protocol was performed as explained below from the permeabilization onward. For the staining of 3D cultures, acini were fixed in 4% PFA for 20 minutes at 4° C., permeabilized with 0.5% Triton™-X100 in PBS for 20 minutes at room temperature, washed in PBS-glycine, and then blocked with 10% normal goat serum for 1 hour at 37° C., before performing immunofluorescence staining.

PERK = target: T1, PERK (Mus musculus, UniProt Q9Z2B5); assay: IHC of P-PERK and P-eIF2α in tissues of treated MMTV-HER2 mice; format: in vivo; details: 50 mpk i.p. daily, two weeks
T1 construct: from tissue; host or cells: mammary gland and pancreas sections of MMTV-HER2 (FVB/N-Tg(MMTVneu)) female mice
T1 sequence (Q9Z2B5 29-1114): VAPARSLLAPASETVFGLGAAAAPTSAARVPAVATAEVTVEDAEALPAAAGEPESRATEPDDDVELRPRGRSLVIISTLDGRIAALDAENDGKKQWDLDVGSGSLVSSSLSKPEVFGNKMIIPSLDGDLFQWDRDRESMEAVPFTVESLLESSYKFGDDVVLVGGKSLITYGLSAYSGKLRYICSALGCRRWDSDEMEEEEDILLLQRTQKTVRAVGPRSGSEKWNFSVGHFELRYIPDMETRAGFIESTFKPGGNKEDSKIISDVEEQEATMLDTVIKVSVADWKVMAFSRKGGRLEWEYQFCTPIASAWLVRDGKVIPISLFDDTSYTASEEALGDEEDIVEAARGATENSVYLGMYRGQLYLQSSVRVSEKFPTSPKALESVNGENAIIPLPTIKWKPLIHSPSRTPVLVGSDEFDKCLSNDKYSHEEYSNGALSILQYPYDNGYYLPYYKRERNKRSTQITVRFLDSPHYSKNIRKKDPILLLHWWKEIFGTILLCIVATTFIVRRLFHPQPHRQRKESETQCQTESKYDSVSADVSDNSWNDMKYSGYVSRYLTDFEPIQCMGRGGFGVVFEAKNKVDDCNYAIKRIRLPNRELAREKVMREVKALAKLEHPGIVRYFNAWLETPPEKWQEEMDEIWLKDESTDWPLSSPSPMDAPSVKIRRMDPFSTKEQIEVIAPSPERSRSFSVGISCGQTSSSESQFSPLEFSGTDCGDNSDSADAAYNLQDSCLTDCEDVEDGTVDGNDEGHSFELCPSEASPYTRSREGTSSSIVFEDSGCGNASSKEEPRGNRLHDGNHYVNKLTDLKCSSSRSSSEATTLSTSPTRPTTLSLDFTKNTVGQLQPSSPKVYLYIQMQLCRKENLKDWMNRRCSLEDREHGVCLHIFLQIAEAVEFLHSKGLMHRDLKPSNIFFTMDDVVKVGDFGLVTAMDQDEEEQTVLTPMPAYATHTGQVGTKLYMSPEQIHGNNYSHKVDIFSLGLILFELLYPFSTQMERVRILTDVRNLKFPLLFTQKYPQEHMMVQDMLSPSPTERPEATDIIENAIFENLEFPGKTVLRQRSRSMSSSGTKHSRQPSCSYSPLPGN
Description: as §1, with “C. […]” for “C.”

HER2^+ tumors = assay: Growth of overt tumors in MMTV-HER2 females; format: in vivo, mouse
Description: as §1, §2
TUNEL in situ cell death detection: Apoptosis levels were evaluated using the In situ Cell Death Detection kit, AP (Roche, Basel, Switzerland). Paraffin sections from tumors were dewaxed, rehydrated, and permeabilized in phosphate buffered saline (PBS) 0.2% TRITON™-X100 for 8 minutes. Then, slides were washed and blocked in 20% normal goat serum for 1 hour at 37° C. The TUNEL reaction mixture was then added and let go for 1 hour at 37° C. The reaction was stopped by incubating with Buffer I(0.3 M Sodium chloride, 30 mM Sodium citrate). Next, the slides were incubated with anti-fluorescein-AP antibody for 30 minutes at 37° C. After three washes in Tris buffered saline (TBS), slides were incubated in alkaline phosphatase substrate in 0.1% TWEEN™-20 for 20 min at room temperature. Finally, the slides were mounted using aqueous mounting medium. The percentage of TUNEL positive cells was calculated using Image J software (NIH).

MCF10A-HER2 cells = assay: Cell viability dose-response (Cell Titer Blue) with or without thapsigargin; format: cell-based; details: Homo sapiens, 48 hours, absence or presence of thapsigargin 2 nM, dashed line of FIG. 2D
Description: Reagents, cell culture, and treatments: EGF was obtained from PeproTech (Rocky Hill, N.J.) and used at 100 ng/ml. Thapsigargin was from Sigma (St. Louis, Mo.) and used at 2 nM. The ZR75.1-H2B-Dendra2 cell line was generated by stable transfection of the H2B-Dendra2 plasmid (Gurskaya et al., “Engineering of a Monomeric Green-to-Red Photoactivatable Fluorescent Protein Induced by Blue Light,” Nat. Biotechnol. 24:461-465 (2006), which is hereby incorporated by reference in its entirety). For 3D cultures, MCF10A-HER2, SKBR3, and ZR75.1-H2B-Dendra2 cells were plated in growth factor-reduced Matrigel (Corning, Corning, N.Y.) and grown as described previously (Avivar-Valderas et al., “Regulation of Autophagy during ECM Detachment is Linked to a Selective Inhibition of mTORC1 by PERK,” Oncogene 32(41):4932-40 (2013), which is hereby incorporated by reference in its entirety). When referring to “low density,” 3,500 cells/8-well were seeded, and for “high density” 20,000 cells/8-well. Treatments with vehicle (DMSO) or LY4 (2 μM) were replaced every 24 hours for 2D and every 48 hours for 3D cultures.

Cc1cc(NC(=O)[C@H](O)c2cc(F)cc(F)c2)ccc1-c1cnc(N)c(C(=O)NC(C)C)c1 [LY4, 2-amino-5-[4-[[(2R)-2-(3,5-difluorophenyl)-2-hydroxy-acetyl]amino]-2-methyl-phenyl]-N-isopropyl-pyridine-3-carboxamide]
HER2^+ circulating tumor cells in blood [1]: no significant difference between vehicle and LY4-treated animals | area of macro-metastases [1]: without affecting the area of these metastases | number and incidence of lung macro-metastases (>100 cells) [1]: reduced the number and the incidence of macro-metastases | number of DCCs in bone marrow [1]: significantly decreased the number of DCCs found in bone marrow | number of P-Rb negative single DCCs in lung sections [1]: strongly reduced the number of non-proliferating (P-Rb negative) single DCCs | number of P-Rb positive solitary DTCs in lung [1]: without affecting the number of P-Rb positive solitary DTCs | number of lung micro-metastases (2-100 cells) [1]: significant decrease in the number of micro-metastases | P-PERK and P-eIF2α levels in mammary gland ducts and pancreatic tissue (PERK): significant decrease in P-PERK and P-eIF2α levels | tumors remaining in complete cytostasis (HER2^+ tumors; 2-week treatment, 7% in controls): 43% | tumors showing regression (HER2^+ tumors; 2-week window treatment): 25% | P-HER2 levels in tumors (IHC score) (HER2^+ tumors; 50 mpk, two weeks): significantly lower levels of P-HER2 than control animals | TUNEL staining of tumor sections (DNA fragmentation) (HER2^+ tumors; 50 mpk, two weeks): significant increase in the levels of DNA fragmentation | median final tumor volume (HER2^+ tumors; 50 mpk, two weeks): significant decrease in median final tumor volume | proliferation in tumors (P-histone H3 IHC) (HER2^+ tumors; 50 mpk, two weeks): not different between vehicle- and LY4-treated tumors | tumor growth rate (HER2^+ tumors; 50 mpk, two weeks): reduced growth rate | IC50 (MCF10A-HER2 cells): ~9 nM
